ChEMBL document CHEMBL1201862, “PubChem BioAssay data set” (2004)
The source made the active and inactive calls.

How the values were obtained:
[1] = target: T1, Carboxy-terminal domain RNA polymerase II polypeptide A small phosphatase 1 (Homo sapiens, UniProt Q9GZU7); experiment: inhibitors of CTDSP1, concentration-response testing, biochemical assay, absorbance-based, actives from ultra-high-throughput screening (AID 540297); type: functional
T1 sequence (Q9GZU7 whole entry): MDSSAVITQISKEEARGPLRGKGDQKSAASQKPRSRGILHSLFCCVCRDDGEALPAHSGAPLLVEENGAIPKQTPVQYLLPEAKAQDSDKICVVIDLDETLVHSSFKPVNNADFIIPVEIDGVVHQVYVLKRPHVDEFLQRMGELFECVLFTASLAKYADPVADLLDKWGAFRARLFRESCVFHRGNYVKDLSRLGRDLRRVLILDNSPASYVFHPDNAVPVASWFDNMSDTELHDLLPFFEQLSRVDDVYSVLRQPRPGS

Cytochrome P450 2D6 = Cytochrome P450 2D6 (Homo sapiens, UniProt P10635);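 note: CYP2D6 member of a cytochrome P450 panel assay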
Chain of Cytochrome P450 2D6 (P10635 whole entry): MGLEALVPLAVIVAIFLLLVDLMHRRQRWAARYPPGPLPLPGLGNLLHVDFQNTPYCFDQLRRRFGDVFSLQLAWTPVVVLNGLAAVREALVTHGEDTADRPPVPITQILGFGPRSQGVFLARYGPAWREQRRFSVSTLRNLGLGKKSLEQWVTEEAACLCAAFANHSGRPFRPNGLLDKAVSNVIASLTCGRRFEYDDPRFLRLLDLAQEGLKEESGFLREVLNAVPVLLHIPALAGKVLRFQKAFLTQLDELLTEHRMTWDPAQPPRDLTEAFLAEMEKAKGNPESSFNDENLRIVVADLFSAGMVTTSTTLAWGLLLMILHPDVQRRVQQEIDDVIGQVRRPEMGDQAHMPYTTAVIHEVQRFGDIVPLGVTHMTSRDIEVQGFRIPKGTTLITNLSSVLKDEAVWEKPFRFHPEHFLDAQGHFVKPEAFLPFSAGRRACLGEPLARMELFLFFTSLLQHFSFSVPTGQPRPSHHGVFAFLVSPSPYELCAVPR

[2] = target: T2, Calpain-2 catalytic subunit (Sus scrofa, UniProt P43367); experiment: pig calpain II inhibitor potency, dose response, biochemical, fluorogenic peptide substrate (AID 1420); type: functional
T2 sequence (P43367 whole entry): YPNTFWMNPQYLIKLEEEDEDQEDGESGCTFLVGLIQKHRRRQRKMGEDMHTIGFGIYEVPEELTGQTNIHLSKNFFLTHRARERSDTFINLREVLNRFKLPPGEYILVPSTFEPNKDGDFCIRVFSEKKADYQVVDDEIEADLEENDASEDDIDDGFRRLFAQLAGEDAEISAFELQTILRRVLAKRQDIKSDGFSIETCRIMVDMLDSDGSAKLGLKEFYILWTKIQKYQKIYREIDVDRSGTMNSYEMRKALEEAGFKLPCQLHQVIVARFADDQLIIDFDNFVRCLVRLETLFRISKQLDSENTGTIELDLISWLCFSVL

cells [3] = type: functional, cell-based
cells [4] = type: functional, cell-based; remark: listed apart in the source
[5] = C. albicans growth with fluconazole, confirmation, fluorescence, retest (AID 2467); type: functional, cell-based
[6] = NIH-3T3 fibroblast cytotoxicity, dose response, cytotoxicity control, cell-based, fluorescence, Alamar Blue, secondary assay (AID 2327); type: functional;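 note: NIH-3T3 mouse fibroblasts cultured with fluconazole at 8 µg/mL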
[7] = target: Glucose-6-phosphate 1-dehydrogenase (Homo sapiens, UniProt P11413); experiment: human G6PD enzyme inhibitors, dose response, selectivity assay for P. falciparum G6PD inhibitor project, biochemical, fluorescence (AID 504792); type: functional
Chain of Glucose-6-phosphate 1-dehydrogenase (P11413 whole entry): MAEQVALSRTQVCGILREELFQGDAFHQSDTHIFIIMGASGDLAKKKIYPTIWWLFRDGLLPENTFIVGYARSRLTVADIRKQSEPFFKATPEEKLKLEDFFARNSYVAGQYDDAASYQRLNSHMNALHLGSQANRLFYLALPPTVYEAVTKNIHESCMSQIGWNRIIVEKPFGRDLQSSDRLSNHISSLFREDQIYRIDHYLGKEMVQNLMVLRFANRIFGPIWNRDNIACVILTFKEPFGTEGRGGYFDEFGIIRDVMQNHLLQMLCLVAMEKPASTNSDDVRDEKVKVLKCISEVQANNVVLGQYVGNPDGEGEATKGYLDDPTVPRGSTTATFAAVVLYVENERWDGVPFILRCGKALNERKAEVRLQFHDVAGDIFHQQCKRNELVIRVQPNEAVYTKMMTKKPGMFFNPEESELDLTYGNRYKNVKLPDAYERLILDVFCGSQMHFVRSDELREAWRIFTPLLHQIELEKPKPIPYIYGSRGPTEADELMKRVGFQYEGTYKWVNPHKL

[8] = HEp-2 cell cytotoxicity, dose response, cytotoxicity control for RSV inhibitor project, HTS (AID 2410); type: functional; settings: human respiratory syncytial virus
[9] = HepG2 cell cytotoxicity, dose response, cytotoxicity control for Shn3 inhibitor project, CellTiter-Glo, cherry-picked (AID 624134); type: functional, cell-based
Streptokinase A = target: T3, Streptokinase A (Streptococcus pyogenes serotype M1, UniProt P10520); experiment: S. pyogenes streptokinase expression inhibitors, potency, dose response, plasminogen activation absorbance, OD405 (AID 1914); type: functional, Streptococcus pyogenes M1 GAS;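 note: secreted streptokinase activity via plasminogen activation per viability signal from cell pellet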
T3 sequence (P10520 whole entry): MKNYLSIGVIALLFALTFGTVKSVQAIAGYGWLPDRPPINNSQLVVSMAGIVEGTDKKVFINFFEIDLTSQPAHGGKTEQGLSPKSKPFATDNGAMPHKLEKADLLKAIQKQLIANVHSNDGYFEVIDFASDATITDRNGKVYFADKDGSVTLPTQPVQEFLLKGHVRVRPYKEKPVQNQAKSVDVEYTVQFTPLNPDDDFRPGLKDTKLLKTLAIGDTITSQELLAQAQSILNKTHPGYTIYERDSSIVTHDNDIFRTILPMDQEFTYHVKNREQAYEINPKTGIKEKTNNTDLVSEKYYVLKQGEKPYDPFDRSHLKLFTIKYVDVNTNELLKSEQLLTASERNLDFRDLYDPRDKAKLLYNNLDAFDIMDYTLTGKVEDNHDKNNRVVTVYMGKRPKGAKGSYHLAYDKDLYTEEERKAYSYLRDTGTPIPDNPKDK

[10] = cytotoxicity toward NIH3T3 fibroblasts, dose response, counter-screen, cell-based, ATP luminescence, mouse fibroblasts (AID 2010); type: functional;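 note: cells exposed to compound for about 90 hours before reading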
Streptococcus = experiment: Group A Streptococcus viability loss, dose response, counter-screen for streptokinase expression inhibitor project, luminescence, BacTiterGlo (AID 1915); type: functional, organism-based;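 note: potency for reduction of bacterial viability or growth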
[11] = target: T4, Heat shock factor protein 1 (Mus musculus, UniProt P38532); experiment: inhibition of MG132-induced HSE-luciferase signal, confirmation, cell-based, NIH3T3, luminescence, dose retest (AID 2382); type: functional;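 note: NIH3T3 fibroblasts with HSF1-driven luciferase reporter stressed by proteasome inhibitor MG132; luminescence from HSF1-driven luciferase expression after 8 hours of MG132 stress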
T4 sequence (P38532 whole entry): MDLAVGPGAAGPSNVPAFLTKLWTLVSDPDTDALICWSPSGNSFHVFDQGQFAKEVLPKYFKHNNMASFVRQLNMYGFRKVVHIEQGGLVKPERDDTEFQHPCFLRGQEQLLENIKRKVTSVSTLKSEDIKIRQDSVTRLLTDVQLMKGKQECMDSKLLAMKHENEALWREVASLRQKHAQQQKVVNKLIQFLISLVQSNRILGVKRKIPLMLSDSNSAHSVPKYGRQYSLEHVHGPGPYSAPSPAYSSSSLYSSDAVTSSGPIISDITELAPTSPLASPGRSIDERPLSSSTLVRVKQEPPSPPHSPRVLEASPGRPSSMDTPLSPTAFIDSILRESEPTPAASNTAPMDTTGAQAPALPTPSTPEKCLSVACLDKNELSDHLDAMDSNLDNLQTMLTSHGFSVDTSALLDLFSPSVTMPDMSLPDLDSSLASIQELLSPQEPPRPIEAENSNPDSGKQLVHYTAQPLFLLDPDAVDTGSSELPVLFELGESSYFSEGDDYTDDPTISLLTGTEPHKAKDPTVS

Paired box protein Pax-8 = Paired box protein Pax-8 (Homo sapiens, UniProt Q06710); experiment: inhibitors of PAX8-driven TPO luciferase reporter, dose response, RMG-I cells, cherry-pick (AID 687027); type: functional, cell-based;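 note: luciferase reporter driven by Pax8 target thyroperoxidase promoter measured by SteadyGlo luminescence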
Chain of Paired box protein Pax-8 (Q06710 whole entry): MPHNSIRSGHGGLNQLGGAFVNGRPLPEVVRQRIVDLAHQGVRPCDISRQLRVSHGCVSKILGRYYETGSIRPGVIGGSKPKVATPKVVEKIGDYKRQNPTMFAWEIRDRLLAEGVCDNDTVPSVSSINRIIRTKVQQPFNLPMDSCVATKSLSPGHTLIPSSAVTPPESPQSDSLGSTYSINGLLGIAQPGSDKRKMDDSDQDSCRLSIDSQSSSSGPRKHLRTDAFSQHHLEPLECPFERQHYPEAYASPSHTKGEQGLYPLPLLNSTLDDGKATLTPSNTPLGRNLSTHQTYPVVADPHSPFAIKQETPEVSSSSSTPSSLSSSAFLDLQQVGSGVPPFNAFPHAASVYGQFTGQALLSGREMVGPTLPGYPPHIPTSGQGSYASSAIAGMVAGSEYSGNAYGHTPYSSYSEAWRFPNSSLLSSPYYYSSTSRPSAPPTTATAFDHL

[12] = Shn3 3'UTR reporter inhibitors, dose response, cell-based, Clone20 osteoblasts, firefly luciferase, cherry-picked (AID 624132); type: functional;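 note: firefly luciferase luminescence from reporter carrying the Shn3 3'UTR in osteoblasts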
[13] = inhibitors of intracellular T. cruzi replication, confirmation, NIH3T3 host cells, beta-gal luminescence (AID 2044); type: functional, cell-based;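 note: intracellular parasites grown in NIH/3T3 mouse fibroblasts as host cells; luminescent beta-galactosidase reporter signal from transgenic T. cruzi replicating inside host cells; inhibitors lower the luminescence signal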
[14] = control 3'UTR Renilla luciferase suppression, dose response, counter-screen for Shn3 inhibitor project, cell-based, Clone20-Shn3RL, cherry-picked (AID 624133); type: functional
[15] = system: Streptococcus sp. 'group A'; experiment: growth inhibition of control SK(-) GAS strain, dose response, counter-screen for streptokinase expression inhibitor project, luminescence, kanamycin, BacTiterGlo, confirmation (AID 1900); type: functional, organism-based
[16] = target: FAD-linked sulfhydryl oxidase ALR (Homo sapiens, UniProt P55789); experiment: inhibitors of human ALR sulfhydryl oxidase, dose response, biochemical, H2O2 detection, luminescence, cherry-pick (AID 493248)
Chain of FAD-linked sulfhydryl oxidase ALR (P55789 whole entry): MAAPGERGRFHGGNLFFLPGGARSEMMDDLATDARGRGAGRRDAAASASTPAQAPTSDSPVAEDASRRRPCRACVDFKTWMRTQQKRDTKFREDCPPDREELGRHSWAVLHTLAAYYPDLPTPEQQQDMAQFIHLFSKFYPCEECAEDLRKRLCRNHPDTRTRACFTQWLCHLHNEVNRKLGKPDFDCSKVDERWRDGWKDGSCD

Cc1cc(=O)oc2cc(OCC(=O)N3c4ccccc4NC(=O)C3(C)C)ccc12
IC50 [1]: 8.21 µM (active)

COc1cccc(C2=CC(c3ccccc3)n3nnnc3N2)c1 (stereo not given)
AC50 (Cytochrome P450 2D6): 31.6 µM (inconclusive)
IC50 [2]: 2.32 µM (not active)

Cc1cc(C(=O)O)oc(=O)c1
EC50 (cells [3]): 58.9 µM (active)
EC50 (cells [4]): > 350 µM (not active)

C=C(C)CNC(=S)N/N=C/c1c(F)cccc1F
IC50 [2]: 20.3 µM (not active)

CC(C)NC(=O)C1CCCN(S(C)(=O)=O)C1 (stereo not given)
IC50 [2]: 7.4 µM (not active)

COc1ccc(NC(=O)NC(C)c2ccccc2)cc1 (stereo not given)
EC50 [5]: > 38 µM (not active)
EC50 [6]: 73.5 µM (active)

CCc1ccc(NC(=O)C[S+]([O-])CC(=O)Nc2ccc(F)cc2F)cc1 (stereo not given)
IC50 [1]: 11.2 µM (active)

CCn1c(=O)c(C(=O)NCc2cccnc2)c(O)c2ccccc21
EC50 [5]: > 38 µM (not active)
EC50 [6]: > 150 µM (inactive)

O=C(Nc1ccccc1N1CCOCC1)c1cc(F)cc(F)c1
EC50 [5]: 1.64 µM (active)
EC50 [6]: > 160 µM (inactive)

CCC(C)c1ccccc1OCCn1ccnc1 (stereo not given)
IC50 [7]: > 80 µM (inactive)

CCn1c(N)c(C(=O)NC)sc1=S
IC50 [7]: > 80 µM (inactive)

COc1ccc(OC)c(NC(=O)c2ccc3c(=O)n(CCc4ccccc4)c(=S)[nH]c3c2)c1
IC50 [2]: 13 µM (not active)

COc1cccc(-c2c(C(=O)N/N=C/c3ccc(C)o3)nnn2-c2nonc2N)c1
IC50 [7]: > 80 µM (inactive)

CCn1c(SCc2ccc(F)cc2)nnc1C1CCN(S(=O)(=O)c2ccc(OC)cc2)CC1
IC50 [2]: 26.2 µM (not active)

O=C(CNC(=O)c1ccccc1)NCC(=O)OCC(=O)c1ccc([N+](=O)[O-])cc1
IC50 [7]: > 80 µM (inactive)

CCCc1cc(C(=O)Nc2sc3c(c2C#N)CCC3)no1
EC50 [5]: 1.02 µM (active)
EC50 [6]: > 150 µM (inactive)

CCCCn1c(N)c(-c2nc3ccccc3o2)c2c([N+](=O)[O-])nn(C)c(=O)c21
IC50 [1]: 4.75 µM (active)

COc1ccc2c(c1)-c1nc(NC(=O)c3ccco3)sc1CC2
EC50 (cells [3]): 23 µM (active)
CC50 [8]: 18.4 µM (active)
EC50 (cells [4]): > 350 µM (not active)

Cc1ccc(C)c(N2CCN(C(=O)CCCCCn3c(=S)[nH]c4ccc(N5CCOCC5)cc4c3=O)CC2)c1
AC50 [9]: 5.02 µM (active)
EC50 (Streptokinase A): > 150 µM (not active)
EC50 [10]: 16.5 µM (active)
EC50 (Streptococcus): 140 µM (active)
EC50 [11]: 5.28 µM (active)
AC50 (Paired box protein Pax-8): 5.97 µM (active)
AC50 [12]: 1.99 µM (active)
EC50 [13]: 0.348 µM (active)
AC50 [14]: 3.48 µM (active)
EC50 [15]: 6.52 µM (active)

COc1ccc2c(c1OC)C(=O)N1N=C(c3ccc(O)cc3)CC21 (stereo not given)
AC50 [16]: 1.11 µM (active)
EC50 [6]: > 150 µM (inactive)

C[N+]1(CC(=O)OCCCc2ccccc2)CCCC1
IC50 [1]: 6.36 µM (active)

Cc1oc2c(C)c3oc(=O)c(CC(=O)N[C@@H](CCCNC(N)=O)C(=O)O)c(C)c3cc2c1C
IC50 [1]: 9.59 µM (active)

CC(=O)Nc1ccc(S(=O)(=O)[N-]C2=C([n+]3ccn(-c4ccccn4)c3)C(=O)c3ccccc3C2=O)cc1
EC50 (cells [3]): > 350 µM (not active)
EC50 (cells [4]): > 350 µM (not active)

Cc1ccc(OCC(=O)NNC(=O)C(C)Sc2ncnc3sc(C)c(C)c23)cc1 (stereo not given)
IC50 [2]: 2.51 µM (not active)

COc1ccc(CNC(=O)C2CCN(S(=O)(=O)c3ccc(-c4nn[nH]n4)cc3)CC2)cc1
IC50 [2]: 14.9 µM (not active)

Cc1ccc(CSc2ccc3nnc(-c4cccnc4)n3n2)cc1
IC50 [2]: 5.64 µM (active)
